Where two headings read alike, the source gives them in different places.

For this assay, the system named is Mycosphaerella graminicola; Anamorph: Septoria tritici; Bayer Code SEPTTR. Nature of the assay: Leaf blotch of wheat, foliar fungicide treatment, one day protectant (1DP) or three day curative (3DC). It counts as in vivo, Septoria tritici on wheat plants (variety Yuma). Conditions: Zymoseptoria tritici; for pest or weed control at 50 ppm / pest or weed control at 200 ppm: % disease control rating.

Where [1] appears, read: 24 h, one day protectant (1DP), 25 ppm, rating of percent disease control, read-out: SETTTR 1DP 25 ppm.
Setting [2] is: 24 h, one day protectant (1DP), rating of percent disease control, read-out: SEPTTR 1DP 100 ppm.
[3] abbreviates: 72 h, three day curative (3DC), 25 ppm, rating of percent disease control, read-out: SEPTTR 3DC 25 ppm.
[4] abbreviates: 72 h, three day curative (3DC), rating of percent disease control, read-out: SEPTTR 3DC 100 ppm.
Where [5] appears, read: 24 h, one day protectant (1DP), 25 ppm (first 1DP column), percent control rating, read-out: SETTTR 1DP 25 ppm.
Setting [6] is: 24 h, one day protectant (1DP), 25 ppm as printed (second 1DP column), percent control rating, read-out: SETTTR 1DP 25 ppm.
[7] abbreviates: 72 h, three day curative (3DC), 25 ppm, percent control rating, read-out: SEPTTR 3DC 25 ppm.
Where [8] appears, read: 72 h, three day curative (3DC), percent control rating, read-out: SEPTTR 3DC 100 ppm.
Setting [9] is: 24 h, one day protectant, 25 ppm, rating of percent disease control, read-out: SETTTR 1DP 25 ppm.
Setting [10] is: 24 h, one day protectant, rating of percent disease control, read-out: SEPTTR 1DP 100 ppm.
[11] abbreviates: 72 h, three day curative, 25 ppm, rating of percent disease control, read-out: SEPTTR 3DC 25 ppm.
Setting [12] is: 72 h, three day curative, rating of percent disease control, read-out: SEPTTR 3DC 100 ppm.
Setting [13] is: 24 h, one day protectant (1DP), 25 ppm, percent disease control rating, read-out: SETTTR 1DP 25 ppm.
The mark [14] stands for this setting: 24 h, one day protectant (1DP), percent disease control rating, read-out: SEPTTR 1DP 100 ppm.
The mark [15] stands for this setting: 72 h, three day curative (3DC), 25 ppm, percent disease control rating, read-out: SEPTTR 3DC 25 ppm.
[16] abbreviates: 72 h, three day curative (3DC), percent disease control rating, read-out: SEPTTR 3DC 100 ppm.

For the setting “24 h, one day protectant”, `Fc1cnc(OC2CCCCC2)nc1NCc1ccc2c(c1)OCO2` [Compound 841] registered a pest or weed control at 50 ppm of 51 to 75% and a pest or weed control at 200 ppm of 76 to 100%.
For the compound `CC(C)Oc1cccc(COc2ncc(F)c(N)n2)c1` [Compound 441], the pest or weed control at 25 ppm reads like this: under setting [1], 76 to 100%; under setting [3], 76 to 100%. The pest or weed control at 100 ppm lay in the range of 76 to 100% under setting [2] and 76 to 100% under setting [4].
With `CNc1nc(OCc2ccc(OC)cc2)ncc1F` [Compound 339], the pest or weed control at 25 ppm reads like this: under setting [1], 0 to 25%; under setting [3], 26 to 50%. The pest or weed control at 100 ppm was 26 to 50% under setting [2] and 51 to 75% under setting [4].
On to `C/C(=N\Oc1ncc(F)c(N)n1)C(F)(F)F` [Compound 1114], for which the pest or weed control at 25 ppm by setting is: under setting [5], 0 to 25%; under setting [6], 0 to 25%; under setting [7], 26 to 50%. Besides, the pest or weed control at 100 ppm under setting [8] was 76 to 100%.
Turning to `Nc1nc(OCc2c(F)cc(F)cc2F)ncc1F` [Compound 194], the pest or weed control at 25 ppm was in the range of 76 to 100% under setting [1] and 76 to 100% under setting [3]. For the same compound, the pest or weed control at 100 ppm by setting is: under setting [2], 76 to 100%; under setting [4], 76 to 100%.
On to `Nc1nc(Oc2cccc([N+](=O)[O-])c2)ncc1F` [Compound 715], for which the pest or weed control at 25 ppm lay in the range of 26 to 50% under setting [9] and 0 to 25% under setting [11]. Moreover, the pest or weed control at 100 ppm by setting is: under setting [10], 51 to 75%; under setting [12], 0 to 25%.
For `CCOC(CC)Nc1nc(OCc2ccc(F)cc2)ncc1F` (stereo not shown) [Compound 227], the pest or weed control at 25 ppm under setting [1] lay in the range of 76 to 100% and the pest or weed control at 25 ppm under setting [3] fell in the range of 76 to 100%. In addition, the pest or weed control at 100 ppm lay in the range of 76 to 100% under setting [2] and 76 to 100% under setting [4].
Regarding `Fc1cnc(OCc2ccc3c(c2)OCO3)nc1NC1CC1` [Compound 919], the pest or weed control at 200 ppm (24 h, one day protectant) is 76 to 100%.
In the case of `CC[Si](CC)(CC)Nc1nc(OCCCOC)ncc1F` [Compound 279], the pest or weed control at 25 ppm under setting [1] was in the range of 51 to 75% and the pest or weed control at 25 ppm under setting [3] fell in the range of 76 to 100%. Moreover, the pest or weed control at 100 ppm reads like this: under setting [2], 76 to 100%; under setting [4], 76 to 100%.
In the case of `Fc1ccc(COc2ncc(F)c(/N=N/c3ccc(Cl)c(Cl)c3)n2)cc1` [Compound 1090], the pest or weed control at 25 ppm under setting [5] is 0 to 25%, the pest or weed control at 25 ppm under setting [6] was in the range of 0 to 25% and the pest or weed control at 25 ppm under setting [7] was 26 to 50%. For the same compound, the pest or weed control at 100 ppm under setting [8] was in the range of 26 to 50%.
`C=CCOc1ncc(F)c(N/N=C(\C)c2ccc(Cl)s2)n1` [Compound 1061]: the pest or weed control at 25 ppm under setting [5] lay in the range of 26 to 50%, the pest or weed control at 25 ppm under setting [6] was 0 to 25% and the pest or weed control at 25 ppm under setting [7] was 0 to 25%. Besides, under setting [8], the pest or weed control at 100 ppm was in the range of 0 to 25%.
`Fc1cnc(OCc2ccc(C(F)(F)F)cc2)nc1NCc1cccs1` [Compound 896] showed a pest or weed control at 200 ppm (24 h, one day protectant) of 76 to 100%.
Consider `CN(C)/C=N/c1nc(O)ncc1F` [Compound 25, N′-(5-Fluoro-2-hydroxy-pyrimidin-4-yl)-N,N-dimethyl-formamidine], for which the pest or weed control at 25 ppm is, setting by setting: under setting [13], 76 to 100%; under setting [15], 76 to 100%. Further, the pest or weed control at 100 ppm under setting [14] fell in the range of 76 to 100% and the pest or weed control at 100 ppm under setting [16] fell in the range of 76 to 100%.
On to `Fc1ccccc1NC(=S)Nc1nc(OCc2ccccc2)ncc1F` [Compound 539], for which the pest or weed control at 25 ppm reads like this: under setting [1], 76 to 100%; under setting [3], 0 to 25%. Moreover, the pest or weed control at 100 ppm was 76 to 100% under setting [2] and 0 to 25% under setting [4].
For `CC(Oc1ncc(F)c(N)n1)c1c(F)c(F)c(F)c(F)c1F` (stereo not shown) [Compound 544], the pest or weed control at 25 ppm fell in the range of 0 to 25% under setting [1] and 0 to 25% under setting [3]. In addition, the pest or weed control at 100 ppm was in the range of 26 to 50% under setting [2] and 0 to 25% under setting [4].
`CN1CCCC/C1=N\c1nc(OCc2ccn(C)n2)ncc1F` [Compound 751]: the pest or weed control at 25 ppm runs as follows: under setting [1], 51 to 75%; under setting [3], 26 to 50%. Further, the pest or weed control at 100 ppm under setting [2] fell in the range of 76 to 100% and the pest or weed control at 100 ppm under setting [4] is 76 to 100%.
In the case of `CNc1nc(OCc2ccc(OC)c(OC)c2)ncc1F` [Compound 589], the pest or weed control at 25 ppm reads like this: under setting [9], 0 to 25%; under setting [11], 0 to 25%. Further, the pest or weed control at 100 ppm was 0 to 25% under setting [10] and 0 to 25% under setting [12].
`Cc1ccc(COc2ncc(F)c(NNc3nccc(C(F)(F)F)n3)n2)cc1` [Compound 1041]: the pest or weed control at 25 ppm fell in the range of 0 to 25% under setting [5], 0 to 25% under setting [6] and 0 to 25% under setting [7]. Moreover, the pest or weed control at 100 ppm under setting [8] fell in the range of 0 to 25%.
For `Cc1ccc(CNc2nc(OCCc3ccccc3)ncc2F)cc1` [Compound 871], for the setting “24 h, one day protectant”, the pest or weed control at 50 ppm was in the range of 0 to 25% and the pest or weed control at 200 ppm is 26 to 50%.
Turning to `CCCCCCOc1ncc(F)c(N[Si](CC)(CC)CC)n1` [Compound 658], the pest or weed control at 25 ppm is, setting by setting: under setting [9], 0 to 25%; under setting [11], 0 to 25%. In addition, the pest or weed control at 100 ppm lay within 51 to 75% under setting [10] and 51 to 75% under setting [12].
For `Nc1nc(OC(=O)c2ccccc2)ncc1F` [Compound 413], the pest or weed control at 25 ppm runs as follows: under setting [1], 76 to 100%; under setting [3], 76 to 100%. The pest or weed control at 100 ppm lay in the range of 76 to 100% under setting [2] and 76 to 100% under setting [4].
With `CCOCNc1nc(OCc2cccc(F)c2)ncc1F` [Compound 498], the pest or weed control at 25 ppm by setting is: under setting [1], 76 to 100%; under setting [3], 76 to 100%. Besides, the pest or weed control at 100 ppm was in the range of 76 to 100% under setting [2] and 76 to 100% under setting [4].
As for `Cn1ccc(COc2ncc(F)c(NC(=S)NCc3ccccc3F)n2)n1` [Compound 595], the pest or weed control at 25 ppm under setting [9] was in the range of 26 to 50% and the pest or weed control at 25 ppm under setting [11] lay within 0 to 25%. In addition, the pest or weed control at 100 ppm lay in the range of 76 to 100% under setting [10] and 0 to 25% under setting [12].
As to `NN(Cc1ccccc1)c1nc(OCc2ccc(F)cc2)ncc1F` [Compound 380], the pest or weed control at 25 ppm runs as follows: under setting [1], 76 to 100%; under setting [3], 0 to 25%. Besides, the pest or weed control at 100 ppm fell in the range of 76 to 100% under setting [2] and 76 to 100% under setting [4].
As to `O=[N+]([O-])c1ccccc1SNc1nc(OCc2ccccc2)ncc1F` [Compound 558], the pest or weed control at 25 ppm reads like this: under setting [9], 76 to 100%; under setting [11], 26 to 50%. For the same compound, the pest or weed control at 100 ppm under setting [10] was 76 to 100% and the pest or weed control at 100 ppm under setting [12] lay in the range of 26 to 50%.
For the compound `Fc1cnc(OCC(F)(F)F)nc1NCCc1ccccc1` [Compound 861], where the note is “24 h, one day protectant”, the pest or weed control at 50 ppm was in the range of 0 to 25% and the pest or weed control at 200 ppm is 26 to 50%.
`Fc1cnc(OCc2cccc(C(F)(F)F)c2)nc1NCc1ccc(Cl)cc1` [Compound 813]: where the note is “24 h, one day protectant”, the pest or weed control at 50 ppm lay within 76 to 100% and the pest or weed control at 200 ppm is 76 to 100%.
In the case of `CC(C)(C)OCCOc1ncc(F)c(N)n1` [Compound 802], the pest or weed control at 25 ppm runs as follows: under setting [1], 0 to 25%; under setting [3], 0 to 25%. Further, the pest or weed control at 100 ppm by setting is: under setting [2], 0 to 25%; under setting [4], 0 to 25%.
Take `C=CCOc1ncc(F)c(NNc2ccc(Br)cc2)n1` [Compound 1078]: the pest or weed control at 25 ppm lay in the range of 0 to 25% under setting [5], 0 to 25% under setting [6] and 26 to 50% under setting [7]. In addition, the pest or weed control at 100 ppm under setting [8] fell in the range of 0 to 25%.
As for `O=C(NCc1ccco1)Nc1nc(O)ncc1F` [Compound 981], the pest or weed control at 25 ppm under setting [5] was 0 to 25%, the pest or weed control at 25 ppm under setting [6] was in the range of 0 to 25% and the pest or weed control at 25 ppm under setting [7] was in the range of 0 to 25%. Also, under setting [8], the pest or weed control at 100 ppm fell in the range of 0 to 25%.
With `Fc1ccc(COc2ncc(F)c(NCc3ccc4c(c3)OCO4)n2)cc1` [Compound 882], for the setting “24 h, one day protectant”, the pest or weed control at 50 ppm lay in the range of 76 to 100% and the pest or weed control at 200 ppm lay within 76 to 100%.
In the case of `CONc1nc(OC)ncc1F` [Compound 1058], the pest or weed control at 25 ppm reads like this: under setting [5], 0 to 25%; under setting [6], 0 to 25%; under setting [7], 0 to 25%. The pest or weed control at 100 ppm under setting [8] is 0 to 25%.
For the compound `CC(=O)Nc1nc(OCc2ccc(C(F)(F)F)cc2)ncc1F` [Compound 947], where the note is “24 h, one day protectant”, the pest or weed control at 50 ppm lay in the range of 76 to 100% and the pest or weed control at 200 ppm was in the range of 76 to 100%.
For `Fc1ccc(COc2ncc(F)c(NCOCc3ccccc3)n2)cc1` [Compound 18, Benzyloxymethyl[5-fluoro-2-(4-fluorobenzyloxy)pyrimidin-4-yl]amine], the pest or weed control at 25 ppm runs as follows: under setting [13], 51 to 75%; under setting [15], 51 to 75%. For the same compound, the pest or weed control at 100 ppm under setting [14] was in the range of 76 to 100% and the pest or weed control at 100 ppm under setting [16] lay in the range of 51 to 75%.

For the origin of these results see US9204653B2, “5-fluoro pyrimidine derivatives” (DOW AGROSCIENCES LLC, priority 2008, dated 2015).
